Patent US20250197248A1, “WATER TREATMENT SYSTEM” (KEMIRA OYJ, priority 2022, published 2025)

Key:
[1] = system: E. coli; assay: Disinfection efficacy of PFA in wastewater samples, colony count (USEPA method 10029); assay type: cell-based; settings: S2 (50% secondary + 50% primary-only wastewater, 30 min contact) versus S1 (secondary-treated wastewater, 90 min contact); FIG. 4B
Procedure: (§1) The disinfection efficacy of PFA against fecal coliform and E. coli was assessed in wastewater (WW) that had undergone secondary treatment (S1), and in a mixed wastewater sample comprising 50% wastewater that had undergone secondary treatment and 50% wastewater that had undergone primary treatment without secondary treatment (S2). The S2 sample would have inevitably contained higher levels of TSS, increased organic matter and increased microbial content.
(§2) WW samples were collected and stored at 4° C. […] until use (within 1 to 3 days). A PFA solution was prepared immediately prior to use by mixing 2.5 mL of 35% hydrogen peroxide with 2.5 mL of DEX®-A375 (a mixture of formic and sulfuric acids). The resultant mixture was incubated for 5 minutes at 4° C. and subsequently for 25 minutes at room temperature to complete formation of the 9.5% PFA solution. The 9.5% PFA solution was diluted to 950 mg/L by adding 0.2 mL of the 9.5% PFA solution to 19.8 mL distilled water.
(§3) WW samples were dosed with PFA to determine efficacy after set contact times. A shorter 30 minute contact time was used for the S2 samples to emulate the shorter contact times that would occur in a CSO event when the volume and rate of flow of water through the WW treatment system is increased. […] After incubation, the number of colonies was counted. […]

[2] = system: fecal coliform; assay: as above; assay type: cell-based; settings: S2 (50% secondary + 50% primary-only wastewater, 30 min contact) versus S1 (secondary-treated wastewater, 90 min contact); FIG. 4A
Procedure: as §1, §2, §3

[3] = Residual PFA over time in dosed wastewater samples (CHEMetrics test kit); assay type: physicochemical; settings: doses 0.5, 1 and 2 ppm; S2 samples versus S1 samples; FIG. 5
Procedure: Varying doses of PFA (0.5 ppm, 1 ppm, and 2 ppm) were dosed into S1 and S2 wastewater samples as described in Example 1. Residual levels of PFA were measured using a CHEMetrics test kit for PAA with vacuum ampules detecting in the 0-5 ppm range (Maffettone, 2020). PFA values were obtained by multiplying the PAA results by 0.82 (Maffettone, 2020). The factor of 0.82 for conversion of PAA to PFA corresponds to the molecular weight ratio of PFA (62.02 g/mol) to PAA (76.05 g/mol). Due to the fast degradation of PFA, residual PFA concentrations were determined immediately following the sample collection.

Question: What does the source list for O=COO [PFA, performic acid]?
Answer: disinfection efficacy against E. coli [1]: significantly reduced; disinfection efficacy against fecal coliform [2]: significantly reduced; residual PFA levels over time (degradation in wastewater) [3]: decrease more rapidly over time in S2 samples than in S1 samples
